Results: ChEMBL document CHEMBL1151717, “In vivo active aldosterone synthase inhibitors with improved selectivity: lead optimization providing a series of pyridine substituted 3,4-dihydro-1H-quinolin-2-one derivatives” (J Med Chem, 2008)

What was measured:
CYP19 (aromatase) = target: T1, CYP19 (aromatase) (Homo sapiens, UniProt P11511); experiment: Inhibition of human placental CYP19 at 500 nM; type: functional
T1 sequence (P11511 whole entry): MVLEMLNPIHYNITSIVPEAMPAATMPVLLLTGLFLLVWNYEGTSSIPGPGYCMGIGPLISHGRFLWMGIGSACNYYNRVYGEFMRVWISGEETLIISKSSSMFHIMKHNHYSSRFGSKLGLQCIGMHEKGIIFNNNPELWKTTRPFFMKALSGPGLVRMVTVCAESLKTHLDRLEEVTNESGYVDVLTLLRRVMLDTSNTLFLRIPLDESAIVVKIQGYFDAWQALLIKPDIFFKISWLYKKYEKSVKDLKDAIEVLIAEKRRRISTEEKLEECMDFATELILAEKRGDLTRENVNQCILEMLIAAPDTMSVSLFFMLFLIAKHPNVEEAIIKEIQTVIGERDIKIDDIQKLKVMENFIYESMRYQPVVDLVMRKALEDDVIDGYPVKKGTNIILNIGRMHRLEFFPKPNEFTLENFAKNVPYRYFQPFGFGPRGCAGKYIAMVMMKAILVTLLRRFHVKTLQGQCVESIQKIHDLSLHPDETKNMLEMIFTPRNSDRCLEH

CYP1A2 = target: T2, CYP1A2 (Homo sapiens, UniProt P05177); experiment: Inhibition of human recombinant CYP1A2 expressed in baculovirus-infected insect microsomes at 2 uM; type: ADME, Microsome
T2 sequence (P05177 whole entry): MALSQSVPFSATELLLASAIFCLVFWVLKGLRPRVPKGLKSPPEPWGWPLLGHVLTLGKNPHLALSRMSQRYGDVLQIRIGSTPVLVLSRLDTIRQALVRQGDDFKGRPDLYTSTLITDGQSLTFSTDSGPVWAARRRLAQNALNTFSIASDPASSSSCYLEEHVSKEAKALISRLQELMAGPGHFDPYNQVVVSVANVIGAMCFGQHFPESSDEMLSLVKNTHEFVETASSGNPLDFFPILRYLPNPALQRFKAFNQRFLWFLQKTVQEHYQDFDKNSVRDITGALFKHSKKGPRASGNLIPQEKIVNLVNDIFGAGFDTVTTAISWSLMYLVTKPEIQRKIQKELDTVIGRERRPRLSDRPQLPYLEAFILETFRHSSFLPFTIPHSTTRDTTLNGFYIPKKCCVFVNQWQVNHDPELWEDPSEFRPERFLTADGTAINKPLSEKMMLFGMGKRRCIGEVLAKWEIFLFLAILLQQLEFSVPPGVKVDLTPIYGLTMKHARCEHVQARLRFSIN

Cytochrome P450 2B6 = target: T3, Cytochrome P450 2B6 (Homo sapiens, UniProt P20813); experiment: Inhibition of human recombinant CYP2B6 expressed in baculovirus-infected insect microsomes; type: ADME, Microsome
T3 sequence (P20813 whole entry): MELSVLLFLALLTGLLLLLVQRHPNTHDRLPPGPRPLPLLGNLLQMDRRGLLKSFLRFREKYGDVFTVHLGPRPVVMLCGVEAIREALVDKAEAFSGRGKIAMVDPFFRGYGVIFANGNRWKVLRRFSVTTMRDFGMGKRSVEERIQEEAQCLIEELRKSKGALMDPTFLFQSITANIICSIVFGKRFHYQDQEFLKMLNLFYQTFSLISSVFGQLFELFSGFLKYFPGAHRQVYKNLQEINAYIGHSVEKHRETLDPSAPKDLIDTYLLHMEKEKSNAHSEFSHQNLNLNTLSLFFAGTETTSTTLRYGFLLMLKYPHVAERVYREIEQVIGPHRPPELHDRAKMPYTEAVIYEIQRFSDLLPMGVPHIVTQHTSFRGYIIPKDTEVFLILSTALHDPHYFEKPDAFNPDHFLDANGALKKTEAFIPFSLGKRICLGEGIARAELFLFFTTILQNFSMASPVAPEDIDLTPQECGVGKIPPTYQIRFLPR

Cytochrome P450 2C9 = Cytochrome P450 2C9 (Homo sapiens, UniProt P11712); experiment: Inhibition of human recombinant CYP2C9 expressed in baculovirus-infected insect microsomes; type: ADME, Microsome
Chain of Cytochrome P450 2C9 (P11712 whole entry): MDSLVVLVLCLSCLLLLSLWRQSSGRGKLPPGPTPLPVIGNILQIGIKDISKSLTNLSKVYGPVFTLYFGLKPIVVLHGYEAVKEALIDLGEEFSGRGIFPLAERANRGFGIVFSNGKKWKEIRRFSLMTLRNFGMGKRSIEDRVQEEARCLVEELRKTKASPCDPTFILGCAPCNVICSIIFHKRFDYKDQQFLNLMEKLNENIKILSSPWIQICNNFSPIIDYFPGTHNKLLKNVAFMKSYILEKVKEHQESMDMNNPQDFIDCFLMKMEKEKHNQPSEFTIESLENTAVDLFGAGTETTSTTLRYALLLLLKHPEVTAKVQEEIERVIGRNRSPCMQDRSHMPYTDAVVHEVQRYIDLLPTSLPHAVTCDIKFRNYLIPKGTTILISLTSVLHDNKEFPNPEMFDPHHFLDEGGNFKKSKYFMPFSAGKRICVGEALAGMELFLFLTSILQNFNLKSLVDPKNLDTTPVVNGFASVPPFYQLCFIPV

Cytochrome P450 2C19 = Cytochrome P450 2C19 (Homo sapiens, UniProt P33261); experiment: Inhibition of human recombinant CYP2C19 expressed in baculovirus-infected insect microsomes; type: ADME, Microsome; conditions: read-out: IC50
Chain of Cytochrome P450 2C19 (P33261 whole entry): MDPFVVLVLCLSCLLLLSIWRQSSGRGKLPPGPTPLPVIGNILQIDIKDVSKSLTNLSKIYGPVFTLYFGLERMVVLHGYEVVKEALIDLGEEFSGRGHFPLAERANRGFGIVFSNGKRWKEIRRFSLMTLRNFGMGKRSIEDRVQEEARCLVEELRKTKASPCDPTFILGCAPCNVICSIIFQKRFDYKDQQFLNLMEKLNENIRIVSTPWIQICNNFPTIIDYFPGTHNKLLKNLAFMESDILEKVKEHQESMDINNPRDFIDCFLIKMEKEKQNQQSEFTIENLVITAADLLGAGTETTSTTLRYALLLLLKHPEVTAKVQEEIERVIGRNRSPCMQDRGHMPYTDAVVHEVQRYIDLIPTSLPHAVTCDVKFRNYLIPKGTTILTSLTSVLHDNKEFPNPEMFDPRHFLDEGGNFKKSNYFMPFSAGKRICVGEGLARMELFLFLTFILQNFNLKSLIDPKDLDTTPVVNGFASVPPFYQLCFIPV

Cytochrome P450 2D6 = Cytochrome P450 2D6 (Homo sapiens, UniProt P10635); experiment: Inhibition of human recombinant CYP2D6 expressed in baculovirus-infected insect microsomes; type: ADME, Microsome
Chain of Cytochrome P450 2D6 (P10635 whole entry): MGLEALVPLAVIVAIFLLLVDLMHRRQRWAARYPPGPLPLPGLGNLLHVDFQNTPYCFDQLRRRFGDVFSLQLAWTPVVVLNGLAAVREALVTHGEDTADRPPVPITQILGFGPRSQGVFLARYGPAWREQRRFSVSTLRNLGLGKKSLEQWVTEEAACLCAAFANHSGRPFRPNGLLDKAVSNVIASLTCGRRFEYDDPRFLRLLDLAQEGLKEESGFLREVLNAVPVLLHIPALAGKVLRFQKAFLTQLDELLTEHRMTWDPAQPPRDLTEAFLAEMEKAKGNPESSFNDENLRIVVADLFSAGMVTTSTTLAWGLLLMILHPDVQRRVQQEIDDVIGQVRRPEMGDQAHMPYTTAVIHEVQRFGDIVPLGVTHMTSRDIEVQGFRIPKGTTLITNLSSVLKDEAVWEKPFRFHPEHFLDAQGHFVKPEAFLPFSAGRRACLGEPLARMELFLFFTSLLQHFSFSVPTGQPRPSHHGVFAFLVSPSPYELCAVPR

Cytochrome P450 3A4 = Cytochrome P450 3A4 (Homo sapiens, UniProt P08684); experiment: Inhibition of human recombinant CYP3A4 expressed in baculovirus-infected insect microsomes; type: ADME, Microsome
Chain of Cytochrome P450 3A4 (P08684 whole entry): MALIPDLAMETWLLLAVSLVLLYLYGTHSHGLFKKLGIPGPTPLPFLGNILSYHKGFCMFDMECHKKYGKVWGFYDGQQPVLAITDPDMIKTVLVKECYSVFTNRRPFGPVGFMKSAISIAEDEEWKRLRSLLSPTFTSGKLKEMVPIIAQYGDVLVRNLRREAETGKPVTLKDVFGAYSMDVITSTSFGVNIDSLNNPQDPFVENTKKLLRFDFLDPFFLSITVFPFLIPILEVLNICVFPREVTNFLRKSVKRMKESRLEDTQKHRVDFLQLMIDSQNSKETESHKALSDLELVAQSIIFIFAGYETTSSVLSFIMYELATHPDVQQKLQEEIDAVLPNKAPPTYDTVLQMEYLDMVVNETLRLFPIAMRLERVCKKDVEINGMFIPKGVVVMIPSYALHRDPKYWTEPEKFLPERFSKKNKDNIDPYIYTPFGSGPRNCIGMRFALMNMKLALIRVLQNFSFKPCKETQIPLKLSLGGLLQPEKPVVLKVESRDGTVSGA

[1] = target: T4, Cytochrome P450 11B2, mitochondrial (Homo sapiens, UniProt P19099)
T4 sequence (P19099 whole entry): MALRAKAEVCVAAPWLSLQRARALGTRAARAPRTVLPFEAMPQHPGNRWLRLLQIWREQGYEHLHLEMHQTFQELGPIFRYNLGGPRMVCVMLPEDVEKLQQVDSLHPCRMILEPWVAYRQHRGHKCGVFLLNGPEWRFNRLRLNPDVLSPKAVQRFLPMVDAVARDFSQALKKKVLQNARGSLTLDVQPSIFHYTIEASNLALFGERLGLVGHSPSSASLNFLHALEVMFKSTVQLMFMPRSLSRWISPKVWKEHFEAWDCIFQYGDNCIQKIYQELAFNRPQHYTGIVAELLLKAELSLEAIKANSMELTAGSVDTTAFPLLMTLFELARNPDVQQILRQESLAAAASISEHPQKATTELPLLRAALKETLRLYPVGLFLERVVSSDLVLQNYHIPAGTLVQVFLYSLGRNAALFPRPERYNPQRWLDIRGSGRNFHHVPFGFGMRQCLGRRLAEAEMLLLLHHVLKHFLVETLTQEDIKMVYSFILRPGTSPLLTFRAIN

Cytochrome P450 1A2 = target: T5, Cytochrome P450 1A2 (Homo sapiens, UniProt P05177)
T5 sequence (P05177 whole entry): T2 sequence (P05177 whole entry)

CYP17 = target: T6, CYP17 (Homo sapiens, UniProt P05093); experiment: in vitro; conditions: human CYP17 expressed in Escherichia coli
T6 sequence (P05093 whole entry): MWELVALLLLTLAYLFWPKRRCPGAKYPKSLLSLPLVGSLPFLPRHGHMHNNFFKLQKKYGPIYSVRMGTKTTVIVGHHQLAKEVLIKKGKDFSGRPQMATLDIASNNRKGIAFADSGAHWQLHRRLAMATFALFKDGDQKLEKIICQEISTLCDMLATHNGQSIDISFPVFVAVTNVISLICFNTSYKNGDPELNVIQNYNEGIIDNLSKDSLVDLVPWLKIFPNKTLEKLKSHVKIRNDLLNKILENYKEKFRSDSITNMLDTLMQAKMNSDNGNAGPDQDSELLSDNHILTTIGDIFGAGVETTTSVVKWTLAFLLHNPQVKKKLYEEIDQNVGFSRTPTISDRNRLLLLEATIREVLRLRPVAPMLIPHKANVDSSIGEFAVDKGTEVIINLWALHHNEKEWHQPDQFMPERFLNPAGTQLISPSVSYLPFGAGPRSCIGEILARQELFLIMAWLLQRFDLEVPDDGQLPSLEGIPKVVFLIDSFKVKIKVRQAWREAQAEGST
Description: Inhibition of human CYP17 expressed in Escherichia coli at 2.5 uM

Row | SMILES | inhibition at 0.5 µM (CYP19 (aromatase)) [%] | inhibition at 2 µM (CYP1A2) [%] | IC50 (Cytochrome P450 2B6) [µM] | IC50 (Cytochrome P450 2C9) [µM] | IC50 (Cytochrome P450 2C19) [µM] | IC50 (Cytochrome P450 2D6; read-out: IC50) [µM] | IC50 (Cytochrome P450 3A4) [µM] | IC50 [1] [µM] | IC50 (Cytochrome P450 1A2) [µM] | inhibition at 2.5 µM (CYP17) [%] | IC50 (Cytochrome P450 2D6) [µM]
1 | O=C1CCc2cc(-c3cncc4ccccc34)ccc2N1 | < 5 | < 5 | < 100 | 2.9 | 9.2 | < 50 | < 50 | 0.0002 | > 150 | 22 | 
2 | O=C1CCc2cc(-c3cccnc3)ccc2C1 | 31 | 60 | < 50 | 28.3 | 41.5 | 171 | 6.21 | 0.0078 | 1.55 | 20 | 
3 | COc1cncc(-c2ccc3c(c2)CCC(=O)C3)c1 | 58 | 57 | < 50 | 12.9 | 45.4 |  | 3.8 | 0.0018 | 1.56 | 21 | < 200
